Source: patent US10106542B2, “Substituted 6,7-dihydropyrazolo[1,5-a]pyrazines as negative allosteric modulators of mGluR2 receptors” (Janssen Pharmaceutica NV, priority 2013, dated 2018)
Read-outs that look alike come from different tables or passages of the source.

Experiments:
[1] = tested on: Wiga rats; test: Reserpine interaction test in rats; assay type: in vivo, rat; conditions: Rattus norvegicus, Wiga rats
Procedure: 4) Reserpine Interaction Test in Rats
It was investigated to what extent the mydriatic action of test compounds was sufficient to counteract the miosis induced by the monoamines-depleting agent reserpine (10 mg/kg; SC) in Wiga rats.
The effects are illustrated in FIG. 3. […] The reference mGlu2 NAMs RO-4995819 (40 mg/kg, p.o.), RO-4491533 (40 mg/kg, p.o.; 10 mg/kg, s.c.) and [CAS 579473-69-1]

[2] = tested on: rats; test: Reversal of the effect of the mGluR2 PAM JNJ-42153605 on scopolamine-induced hyperlocomotion; assay type: in vivo; conditions: Rattus norvegicus, 1 h, test compound 60 min before recording, criterion total distance >1500 cm
How it was run: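 Rats pretreated with test compound or vehicle 60 min before recording, given JNJ-42153605 (20 mg/kg, i.v.) at 30 min prior, then scopolamine (0.16 mg/kg, i.v.) immediately before. Total distance travelled over the first 30 min was video-tracked. All-or-none scoring: reversal >1500 cm, normalization >4400 cm.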

Cc1cc(-c2cnn3c2C(=O)N(c2ccc(C(F)(F)F)cc2)C[C@@H]3C)ccn1 [compound 1, (7S)-7-Methyl-3-(2-methylpyridin-4-yl)-5-[4-(trifluoromethyl)phenyl]-6,7-dihydropyrazolo[1,5-a]pyrazin-4(5H)-one] gave an ED50 ([1]; p.o., -1 h, reserpine 10 mg/kg SC, read-out: ED50 reversal of reserpine-induced miosis) of 9.4 mg/kg, an ED50 ([1]; p.o., -1 h, reserpine 10 mg/kg SC, read-out: ED50 reversal of reserpine-induced ptosis) of 0.78 mg/kg and an ED50 ([1]; p.o., -1 h, reserpine 10 mg/kg SC, read-out: ED50 reversal of reserpine-induced sedation) of 7.1 mg/kg. It also gave an ED50 ([1]; p.o., -4 h, reserpine 10 mg/kg SC, read-out: ED50 reversal of reserpine-induced miosis) of 9.4 mg/kg, an ED50 ([1]; p.o., -4 h, reserpine 10 mg/kg SC, read-out: ED50 reversal of reserpine-induced ptosis) of 0.78 mg/kg and an ED50 ([1]; p.o., -4 h, reserpine 10 mg/kg SC, read-out: ED50 reversal of reserpine-induced sedation) of 14 mg/kg. The ED50 ([1]; po, -1 h, read-out: ED50 mydriasis before the reserpine challenge) was 1.55 mg/kg, the ED50 ([1]; po, -4 h, read-out: ED50 mydriasis before the reserpine challenge) was 0.89 mg/kg and the ED50 ([1]; po, Time 60, reserpine 10 mg/kg SC, read-out: ED50, reversal of reserpine-induced ptosis) was 0.67 mg/kg. For the same compound, the ED50 ([1]; po, Time 240, reserpine 10 mg/kg SC, read-out: ED50, reversal of reserpine-induced ptosis) was 0.89 mg/kg, the ED50 ([1]; sc, Time 60, reserpine 10 mg/kg SC, read-out: ED50, reversal of reserpine-induced ptosis) was 1.01 mg/kg and the ED50 ([1]; sc, read-out: ED50 mydriasis before the reserpine challenge) was 1.78 mg/kg. For the same compound, the ED50 ([1]; sc, reserpine 10 mg/kg SC, read-out: ED50 reversal of reserpine-induced miosis) was 4.1 mg/kg, the ED50 ([1]; sc, reserpine 10 mg/kg SC, read-out: ED50 reversal of reserpine-induced ptosis) was 1.03 mg/kg and the ED50 ([1]; sc, reserpine 10 mg/kg SC, read-out: ED50 reversal of reserpine-induced sedation) was 9.4 mg/kg. It also gave an ED50 ([2]; Route PO) of 0.45 mg/kg and an ED50 ([2]; Route SC) of 3.54 mg/kg.
